Active and inactive are the calls of the source. The calls are words filed in the database; no cut-off is given here.
Legend:
MG-63 [1] = experiment: Induction of p53-independent p21 promoter activation (unknown origin) transfected in human MG63 cells expressing luciferase reporter gene by luciferase reporter gene assay; type: cell-based
MG-63 [2] = experiment: Increase in p21 protein expression in wild-type human MG63 cells at 0.01 to 0.3 uM by Western blotting method; type: functional, cell-based
MG-63 [3] = experiment: Induction of p53-independent p21 promoter activation (unknown origin) transfected in human MG63 cells expressing luciferase reporter gene at 0.3 uM by luciferase reporter gene assay relative to control; type: cell-based

COc1cccc2c1c(O)cc1oc3c(ccc4cccc(O)c43)c12
Activity (MG-63 [1]): Dose-dependent effect | Activity (MG-63 [2]): Active | fold change (FC) (MG-63 [3]): 2.5

Reference: ChEMBL document CHEMBL3352493, “Xylarianaphthol-1, a novel dinaphthofuran derivative, activates p21 promoter in a p53-independent manner” (Bioorg Med Chem Lett, 2014)
